Data as given in patent US20080113908A1, “Use of CRF receptor agonists for the treatment or Prophylaxis of diseases, for example Neurodegenerative diseases” (SmithKline Beecham plc, priority 2000, published 2008).

Tested on: primary cerebellar granule neurones
Assay: Neuroprotection by agonists with or without cAMP inhibitor Rp-cAMP (FIG. 4)
Assay type: cell-based, rat
Conditions: Rp-cAMP 100 μM; agonists 10 nM; LY 294002 75 μM
Experimental: FIG. 4 illustrates percentage mean survival of primary cerebellar granule neurones, when in the presence of the PI 3-kinase inhibitor LY 294002 (75 μM) and also a CRF receptor agonist at 10 nM (CRF, urocortin, urotensin 1, or sauvagine), in the absence or presence of the cAMP inhibitor Rp-cAMP (100 μM). The columns from left to right represent: (1) control without LY 294002 or agonist; (2) control without agonist but with LY 294002; (columns 3, 5, 7, 9) with LY 294002 and either CRF, urocortin, urotensin 1, or sauvagine respectively; (columns 4, 6, 8, 10) as columns 3, 5, 7 and 9 respectively but additionally also with Rp-cAMP. The approx. 20% reduction in neuroprotection when in the presence of Rp-cAMP is clear.

**Q.** How did the “reduction of neuronal rescue provided by the CRF receptor agonists” value turn out when Nc1ncnc2c1ncn2[C@@H]1O[C@@H]2CO[P@@](O)(=S)O[C@H]2[C@H]1O [Rp-cAMPS] was run?
**A.** Its value is “about 20%”.
